# Results as given in patent US20030104507A1, “Method for detection of ATP” (priority 2001, published 2003).
# System: ATPase activity endogenous to L929 cell lysate
# Experiment: Detergent inhibition of ATPase endogenous to L929 cell lysate (ATP remaining by luciferase luminescence, 22° C.)
# Type: biochemical
# Parameters: key to Relative ATPase Activity, slope det/slope lysate: slope with detergent / slope without; ≥1.0 = 100% activity, 0.5 = 50%
# Method: Three separate detergents in each of four detergent classes were tested: anionic [SDS (Sodium dodecyl sulfate), Bioterge (an α olefin sulfate), and sodium deoxycholate], nonionic [TRITON X-100, BigCHAP (N,N-bis(3-D-Gluconamidopropyl)cholamide) and THESIT (polyethylene glycol 400 dodecyl ether, Fluka, #88315)], cationic [BDDABr (Benzyldimethyldodecylammonium bromide), CTAB (Cetyltrimethylammonium bromide), and DTAB (dodecyltrimethylammonium bromide)] and zwitterionic [CHAPS (3[(3-Cholamidopropyl)dimethylammonio]propanesulfonic acid), CHAPSO (3-([3-Cholamidopropyl]dimethylammonio)-2-hydroxy-1-propanesulfonate), and Sulfobetaine 3-10 ([…]-N,N-dimethyl-3-ammonio-1-propanesulfonate)]. Detergents were obtained from Sigma, Fluka and Aldrich.
# L929 cells (ATCC CCL-1; 1.5×10^5 cells/ml) in F12/DMEM (Hyclone, SH30023) containing 10% horse serum (Hyclone, SH30074) were frozen and thawed for four cycles to create a cell lysate. Then 50 μl of stock detergent solutions [10%, 5.0%, 1.0%, and 0.5% (w/v)] were separately added to 450 μl cell lysate, creating a final detergent concentration in the cell lysate sample of 1.0%, 0.5%, 0.1%, and 0.05%, respectively (these percentage values are those used in Tables D and E herein below). Control samples contained either lysate only or 1.0 μM ATP in 15 mM HEPES buffer (pH 7.5). All samples were incubated at 22° C. (room temperature) for the duration of the experiment.
# At various timepoints, 20 μl from each sample/detergent mixture was added to a 96-well luminometer plate in triplicate, and then 100 μl of a solution (“luciferase-luciferin” or “L/L reagent”) containing 25 mM HEPES buffer (pH 7.5), 40 μg luciferase enzyme LucPpe2m146 (Promega, E140), 100 μM luciferin (Promega), and 10 mM MgSO4 was added to each well. The L/L reagent was stored at 4° C. for the duration of the experiment and then allowed to reach ambient temperature just before assaying. After mixing the contents of the plate, light output was measured with a Dynex MLX microtiter plate luminometer (Chantilly, Va.), 0.5 second reads per well with the first measurement taken five minutes after the detergent solution was combined with the sample. The average relative light units and the timepoint at which it was measured (rlu; Table D) and percent of remaining luciferase activity at the timepoint (Table E) are reported; controls were run with each set of experimental conditions as indicated. The cationic and anionic detergents were assayed on one day with one set of controls. The zwitterionic and nonionic detergents were assayed on a separate day with a separate set of controls. The DTAB at 0.5% was assayed on both days (1 and 2).
# The experiment was performed as detailed in Example 1. The average relative light unit values and the percent of ATP remaining values are listed below in Table F and G respectively.
# The log of the percent of ATP remaining after original timepoint values from Table E and Table G were plotted on the y axis against time (in minutes) on the x axis. The slope of the line generated by these values in the presence of detergent was divided by the slope of the line generated by the values in the absence of detergent (lysate control) resulting in the Relative ATPase Activity values listed below in Table H.
# A relative activity value of 1.0 or greater indicates 100% cellular ATPase activity at the concentration of detergent tested. A relative activity value of 0.5 indicates a two-fold (or 50%) decrease in the level of cellular ATPase activity at the concentration of detergent tested when compared to the ATPase activity level in the absence of the detergent. A relative activity value of 0.2 indicates a five-fold (or 80%) decrease in the level of cellular ATPase activity at the concentration of detergent tested when compared to the ATPase activity level in the absence of the detergent.
compound,measurement,setting,value
"C[C@H](CCC(=O)N(CCCNC(=O)[C@H](O)[C@@H](O)[C@H](O)[C@H](O)CO)CCCNC(=O)[C@H](O)[C@@H](O)[C@H](O)[C@H](O)CO)[C@H]1CC[C@H]2[C@@H]3[C@H](O)C[C@@H]4C[C@H](O)CC[C@]4(C)[C@H]3C[C@H](O)[C@]12C [BIGCHAP, N,N-bis(3-D-Gluconamidopropyl)cholamide]",Average Relative Light Unit Values,"0.05% detergent, 5 min",6410.42 rlu
same,Percent ATP Remaining,"0.05% detergent, 5 min",100%
same,Average Relative Light Unit Values,"0.05% detergent, 75 min",2260.45 rlu
same,Percent ATP Remaining,"0.05% detergent, 75 min",35.3%
same,Average Relative Light Unit Values,"0.05% detergent, 169 min",1036.69 rlu
same,Percent ATP Remaining,"0.05% detergent, 169 min",16.2%
same,Average Relative Light Unit Values,"0.05% detergent, 222 min",487.72 rlu
same,Percent ATP Remaining,"0.05% detergent, 222 min",7.6%
same,Average Relative Light Unit Values,"0.05% detergent, 260 min",238.44 rlu
same,Percent ATP Remaining,"0.05% detergent, 260 min",3.7%
same,"Relative ATPase Activity, slope det/slope lysate",0.05 percent detergent,1.069
same,Slope (log percent ATP remaining vs time in minutes),0.05 percent detergent,−0.0056
same,Average Relative Light Unit Values,"0.1% detergent, 5 min",6607.01 rlu
same,Percent ATP Remaining,"0.1% detergent, 5 min",100%
same,Average Relative Light Unit Values,"0.1% detergent, 75 min",2087.01 rlu
same,Percent ATP Remaining,"0.1% detergent, 75 min",31.6%
same,Average Relative Light Unit Values,"0.1% detergent, 169 min",1363.07 rlu
same,Percent ATP Remaining,"0.1% detergent, 169 min",20.6%
same,Average Relative Light Unit Values,"0.1% detergent, 222 min",634.92 rlu
same,Percent ATP Remaining,"0.1% detergent, 222 min",9.6%
same,Average Relative Light Unit Values,"0.1% detergent, 260 min",301.55 rlu
same,Percent ATP Remaining,"0.1% detergent, 260 min",4.6%
same,"Relative ATPase Activity, slope det/slope lysate",0.10 percent detergent,0.968
same,Slope (log percent ATP remaining vs time in minutes),0.10 percent detergent,−0.0051
same,Average Relative Light Unit Values,"0.5% detergent, 5 min",7438.53 rlu
same,Percent ATP Remaining,"0.5% detergent, 5 min",100%
same,Average Relative Light Unit Values,"0.5% detergent, 75 min",3618.22 rlu
same,Percent ATP Remaining,"0.5% detergent, 75 min",48.6%
same,Average Relative Light Unit Values,"0.5% detergent, 169 min",2092.69 rlu
same,Percent ATP Remaining,"0.5% detergent, 169 min",28.1%
same,Average Relative Light Unit Values,"0.5% detergent, 222 min",1144.80 rlu
same,Percent ATP Remaining,"0.5% detergent, 222 min",15.4%
same,Average Relative Light Unit Values,"0.5% detergent, 260 min",677.61 rlu
same,Percent ATP Remaining,"0.5% detergent, 260 min",9.1%
same,"Relative ATPase Activity, slope det/slope lysate",0.50 percent detergent,0.782
same,Slope (log percent ATP remaining vs time in minutes),0.50 percent detergent,−0.0041
same,Average Relative Light Unit Values,"1.0% detergent, 5 min",7576.05 rlu
same,Percent ATP Remaining,"1.0% detergent, 5 min",100%
same,Average Relative Light Unit Values,"1.0% detergent, 75 min",4043.35 rlu
same,Percent ATP Remaining,"1.0% detergent, 75 min",53.4%
same,Average Relative Light Unit Values,"1.0% detergent, 169 min",2474.59 rlu
same,Percent ATP Remaining,"1.0% detergent, 169 min",32.7%
same,Average Relative Light Unit Values,"1.0% detergent, 222 min",1374.29 rlu
same,Percent ATP Remaining,"1.0% detergent, 222 min",18.1%
same,Average Relative Light Unit Values,"1.0% detergent, 260 min",822.65 rlu
same,Percent ATP Remaining,"1.0% detergent, 260 min",10.9%
same,"Relative ATPase Activity, slope det/slope lysate",1.00 percent detergent,0.725
same,Slope (log percent ATP remaining vs time in minutes),1.00 percent detergent,−0.0038
"C[C@H](CCC(=O)NCCC[N+](C)(C)CCCS(=O)(=O)[O-])[C@H]1CC[C@H]2[C@@H]3[C@H](O)C[C@@H]4C[C@H](O)CC[C@]4(C)[C@H]3C[C@H](O)[C@]12C [CHAPS, 3[(3-Cholamidopropyl)dimethylammonio]propanesulfonic acid]",Average Relative Light Unit Values,"0.05% detergent, 5 min",6356.62 rlu
same,Percent ATP Remaining,"0.05% detergent, 5 min",100%
same,Average Relative Light Unit Values,"0.05% detergent, 75 min",2305.56 rlu
same,Percent ATP Remaining,"0.05% detergent, 75 min",36.3%
same,Average Relative Light Unit Values,"0.05% detergent, 169 min",1143.02 rlu
same,Percent ATP Remaining,"0.05% detergent, 169 min",18.0%
same,Average Relative Light Unit Values,"0.05% detergent, 222 min",500.80 rlu
same,Percent ATP Remaining,"0.05% detergent, 222 min",7.9%
same,Average Relative Light Unit Values,"0.05% detergent, 260 min",240.81 rlu
same,Percent ATP Remaining,"0.05% detergent, 260 min",3.8%
same,"Relative ATPase Activity, slope det/slope lysate",0.05 percent detergent,1.061
same,Slope (log percent ATP remaining vs time in minutes),0.05 percent detergent,−0.0056
same,Average Relative Light Unit Values,"0.1% detergent, 5 min",6515.77 rlu
same,Percent ATP Remaining,"0.1% detergent, 5 min",100%
same,Average Relative Light Unit Values,"0.1% detergent, 75 min",2583.65 rlu
same,Percent ATP Remaining,"0.1% detergent, 75 min",39.7%
same,Average Relative Light Unit Values,"0.1% detergent, 169 min",1236.53 rlu
same,Percent ATP Remaining,"0.1% detergent, 169 min",19.0%
same,Average Relative Light Unit Values,"0.1% detergent, 222 min",448.96 rlu
same,Percent ATP Remaining,"0.1% detergent, 222 min",8.6%
same,Average Relative Light Unit Values,"0.1% detergent, 260 min",284.18 rlu
same,Percent ATP Remaining,"0.1% detergent, 260 min",4.4%
same,"Relative ATPase Activity, slope det/slope lysate",0.10 percent detergent,1.023
same,Slope (log percent ATP remaining vs time in minutes),0.10 percent detergent,−0.0054
same,Average Relative Light Unit Values,"0.5% detergent, 5 min",7368.91 rlu
same,Percent ATP Remaining,"0.5% detergent, 5 min",100%
same,Average Relative Light Unit Values,"0.5% detergent, 75 min",4048.24 rlu
same,Percent ATP Remaining,"0.5% detergent, 75 min",54.9%
same,Average Relative Light Unit Values,"0.5% detergent, 169 min",2548.39 rlu
same,Percent ATP Remaining,"0.5% detergent, 169 min",34.6%
same,Average Relative Light Unit Values,"0.5% detergent, 222 min",1438.57 rlu
same,Percent ATP Remaining,"0.5% detergent, 222 min",19.5%
same,Average Relative Light Unit Values,"0.5% detergent, 260 min",909.15 rlu
same,Percent ATP Remaining,"0.5% detergent, 260 min",12.3%
same,"Relative ATPase Activity, slope det/slope lysate",0.50 percent detergent,0.688
same,Slope (log percent ATP remaining vs time in minutes),0.50 percent detergent,−0.0036
same,Average Relative Light Unit Values,"1.0% detergent, 5 min",7241.33 rlu
same,Percent ATP Remaining,"1.0% detergent, 5 min",100%
same,Average Relative Light Unit Values,"1.0% detergent, 75 min",3816.06 rlu
same,Percent ATP Remaining,"1.0% detergent, 75 min",52.7%
same,Average Relative Light Unit Values,"1.0% detergent, 169 min",2348.28 rlu
same,Percent ATP Remaining,"1.0% detergent, 169 min",32.4%
same,Average Relative Light Unit Values,"1.0% detergent, 222 min",1322.30 rlu
same,Percent ATP Remaining,"1.0% detergent, 222 min",18.3%
same,Average Relative Light Unit Values,"1.0% detergent, 260 min",809.22 rlu
same,Percent ATP Remaining,"1.0% detergent, 260 min",11.2%
same,"Relative ATPase Activity, slope det/slope lysate",1.00 percent detergent,0.715
same,Slope (log percent ATP remaining vs time in minutes),1.00 percent detergent,−0.0038
